Reference: patent EP0745595A1, “3-(3-Aryloxyphenyl)-1-(substituted methyl)-s-triazine-2,4,6-oxo or thiotrione herbicidal agents” (American Cyanamid Company, priority 1995, dated 1996)

What was measured:
Type in all cases: in vivo
[1] = system: ABUTILON THEOPHRASTI, MEDIC.; assay: Postemergence herbicidal evaluation, ABUTH (Velvetleaf); details: rated four to five weeks after treatment, averaged
How it was run: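 Velvetleaf (Abutilon theophrasti) seedlings were raised in jiffy flats for about two weeks and then sprayed postemergence. The test compound was dispersed in a 50/50 acetone/water mixture containing 0.5% TWEEN®20 and applied through a nozzle operating at 40 psi. Plants were kept on greenhouse benches and rated 0-9 four to five weeks after treatment.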

CHENOPODIUM ALBUM, L. [2] = assay: Postemergence herbicidal evaluation, CHEAL (Lambsquarters, Common); details: rated four to five weeks after treatment, averaged
How it was run: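 Seedlings of common lambsquarters (Chenopodium album) were raised in jiffy flats for roughly two weeks, then sprayed postemergence through a nozzle at 40 psi with test compound dispersed in 50/50 acetone/water containing 0.5% TWEEN®20 surfactant. Plants were kept on greenhouse benches under standard care and rated visually on a 0-9 scale versus controls.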

[3] = system: AMBROSIA ARTEMISIIFOLIA, L.; assay: Preemergence herbicidal evaluation, AMBEL (Ragweed, Common); details: four to five weeks after treatment
Description: (§1) Results of herbicide evaluation are expressed on a rating scale (0-9). The scale is based upon a visual observation of plant stand, vigor, malformation, size, chlorosis and overall plant appearance as compared with a control.
(§2) The preemergence herbicidal activity of the test compounds of the present invention is exemplified by the following tests in which the seeds of a variety of monocotyledonous and dicotyledonous plants are separately mixed with potting soil and planted on top of approximately one inch of soil in separate pint cups. […] The treated cups are then placed on greenhouse benches, watered and cared for in accordance with conventional greenhouse procedures. From four to five weeks after treatment, the tests are terminated and each cup is examined and rated according to the rating system provided in Example 40.
(§3) The compounds evaluated are reported by compound number given in Example 40.

CHENOPODIUM ALBUM, L. [4] = assay: Preemergence herbicidal evaluation, CHEAL (Lambsquarters, Common); details: four to five weeks after treatment
How it was run: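 First, seeds in potting soil are sown atop soil in cups. Next, the surface is sprayed with test compound in aqueous acetone at roughly 0.125 to 0.50 kg per hectare. After four to five weeks of greenhouse care, each cup is scored 0-9 against a control.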

[5] = system: ECHINOCHLOA ORYZOIDES (ARD.)FRITSCH; assay: Preemergence weed control under flooded paddy conditions, ECHORC (Watergrass (Calif.)); details: for ECHORC herbicidal rating: preemergence weeds, rated three to four weeks after treatment
How it was run: (§4)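 Flooded paddy preemergence test: seeds/propagating organs in top 0.5 cm silt loam, water held 1.5-3 cm above soil. Dosing by pipette into flood water, aqueous/acetone 50/50 v/v, ~0.5, 0.25, 0.125, 0.063 kg/ha a.i. Greenhouse; read at 3-4 wk, 0-9 visual scale.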

CYPERUS IRIA = assay: Preemergence weed control under flooded paddy conditions, CYPIR (Rice Flatsedge); details: for CYPIR herbicidal rating: preemergence weeds, rated three to four weeks after treatment
Experimental: as §1
Preemergence herbicidal activity under flooded paddy conditions is determined as follows: plant seeds or propagating organs are planted in the top 0.5 cm of silt loam soil in 32 oz. plastic containers with a diameter of 10.5 cm and no drainage holes. Water is added to these containers and maintained at 1.5 to 3 cm above the soil surface for the duration of the experiment. […] The treated containers are placed on greenhouse benches and cared for according to normal greenhouse procedures.- Three to four weeks after treatment the test is terminated and each container is examined and herbicidal effect rated according to the rating system provided in Example 40. The compounds evaluated are reported by compound number given in Example 40.
Plant species employed in this example are reported by header abbreviation, common name and scientific name.

[…], PRESL. = Preemergence weed control under flooded paddy conditions, MOOVA (Monochoria); details: for MOOVA herbicidal rating: preemergence weeds, rated three to four weeks after treatment
How it was run: as §4

[6] = system: ORYZA SATIVA, L. TEBONNET; assay: Rice tolerance to post-transplant applications under flooded paddy conditions, ORYSAT (Rice, Tebonnet); details: post-transplant rice; for ORYSAT herbicidal rating (rice tolerance): rated three to four weeks after treatment; for Herbicidal effect rating, ORYSAT: 3-4 weeks after treatment;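 as to ORYSAT herbicidal rating (rice tolerance): applied to flooded soil surface three days after transplanting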
How it was run: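 Post-transplant paddy test: compound applied 3 d after transplanting to flooded soil (1.5-3 cm water), ~0.063-0.5 kg/ha a.i., 50/50 aq/acetone. Silt loam, 2 × 10-d seedlings/pot. Greenhouse 3-4 wk, visual 0-9 score vs control.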

GALIUM APARINE [7] = assay: Postemergence herbicidal evaluation, GALAP (Galium); details: rated four to five weeks after treatment, averaged
How it was run: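 Galium (GALAP) seedlings were raised in jiffy flats for about two weeks, then sprayed with test compounds dispersed in 50/50 acetone/water containing 0.5% TWEEN®20, delivered through a nozzle at 40 psi. Plants were kept on greenhouse benches and visually rated 0-9 against a control four to five weeks later; repeat tests were averaged.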

[8] = system: ECHINOCHLOA CRUS-GALLI, (L) BEAU; assay: Postemergence herbicidal evaluation, ECHCG (Barnyardgrass); details: rated four to five weeks after treatment, averaged
Experimental: In the tests, seedling plants are grown in jiffy flats for about two weeks. The test compounds are dispersed in 50/50 acetone/water mixtures containing 0.5% TWEEN®20, a polyoxyethylene sorbitan monolaurate surfactant of Atlas Chemical Industries, in sufficient quantities to provide the equivalent of about 0.125 kg to 0.500 kg per hectare of active compound when applied to the plants through a spray nozzle operating at 40 psi for a predetermined time. After spraying, the plants are placed on greenhouse benches and are cared for in the usual manner, commensurate with conventional greenhouse practices. From four to five weeks after treatment, the seedling plants are examined and rated according to the rating system set forth below. Where more than one test is involved for a given compound, the data are averaged.
Plant species employed in these evaluations are reported by header abbreviation, common name and scientific name.
as §1

[9] = system: SETARIA VIRIDIS, (L) BEAU; assay: Postemergence herbicidal evaluation, SETVI (Foxtail, Green); details: rated four to five weeks after treatment, averaged
How it was run: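 Greenhouse postemergence test. Seedlings (~2 wk) sprayed at 40 psi; dose ~0.125–0.500 kg/ha in acetone/water (1:1), 0.5% TWEEN 20. Scored 0–9 at 4–5 wk.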

CASSIA OBTUSIFOLIA, L. = assay: Preemergence herbicidal evaluation, CASOB (Sicklepod); details: Rate 0.500 kg/ha, rated four to five weeks after treatment
Description: as §1, §2, §3

GALIUM APARINE [10] = assay: Preemergence herbicidal evaluation, GALAP (Galium); details: Rate 0.500 kg/ha, rated four to five weeks after treatment
Description: as §1, §2, §3

[11] = system: CYPERUS SEROTINUS, ROTTB.; assay: Preemergence weed control under flooded paddy conditions, CYPSE (Flatsedge); details: preemergence, 3-4 weeks after treatment
How it was run: as §4

SAGITTARIA PYGMAEA, L. = assay: Preemergence weed control under flooded paddy conditions, SAGPY (Arrowhead (Pygmaea)); details: preemergence, 3-4 weeks after treatment
How it was run: as §4

[12] = 0.500 kg/ha, preemergence, 3-4 weeks after treatment

For `COC(=O)C(C)n1c(=O)n(C)c(=O)n(-c2cc(Oc3c(F)cc(C(F)(F)F)cc3Cl)ccc2Br)c1=O` (stereo not drawn) [Compound 1, Methyl 3-{2-bromo-5-[(2-chloro-α,α,α,6-tetrafluoro-p-tolyl)oxy]phenyl}tetrahydro-α,5-dimethyl-2,4,6-trioxo-s-triazine-1(2H)-acetate], the “ABUTH, herbicide rating (0-9)” value ([1]; Rate 0.125 kg/ha) was 9.0, the “ABUTH, herbicide rating (0-9)” value ([1]; Rate 0.250 kg/ha) was 9.0 and the “ABUTH, herbicide rating (0-9)” value ([1]; Rate 0.500 kg/ha) was 9.0. For the same compound, the “CHEAL, herbicide rating (0-9)” value (CHENOPODIUM ALBUM, L. [2]; Rate 0.125 kg/ha) was 9.0, the “CHEAL, herbicide rating (0-9)” value (CHENOPODIUM ALBUM, L. [2]; Rate 0.250 kg/ha) was 9.0 and the “CHEAL, herbicide rating (0-9)” value (CHENOPODIUM ALBUM, L. [2]; Rate 0.500 kg/ha) was 9.0. The AMBEL rating ([3]; Rate 0.125 kg/ha) was 0.0, the AMBEL rating ([3]; Rate 0.250 kg/ha) was 0.0 and the AMBEL rating ([3]; Rate 0.500 kg/ha) was 0.0. It also gave a CHEAL rating (CHENOPODIUM ALBUM, L. [4]; Rate 0.125 kg/ha) of 9.0, a CHEAL rating (CHENOPODIUM ALBUM, L. [4]; Rate 0.250 kg/ha) of 9.0 and a CHEAL rating (CHENOPODIUM ALBUM, L. [4]; Rate 0.500 kg/ha) of 9.0. The ECHORC herbicidal rating ([5]; Rate 0.125 kg/ha) was 9.0, the ECHORC herbicidal rating ([5]; Rate 0.250 kg/ha) was 9.0 and the ECHORC herbicidal rating ([5]; Rate 0.500 kg/ha) was 9.0. For the same compound, the CYPIR herbicidal rating (CYPERUS IRIA; Rate 0.125 kg/ha) was 9.0, the CYPIR herbicidal rating (CYPERUS IRIA; Rate 0.250 kg/ha) was 9.0 and the CYPIR herbicidal rating (CYPERUS IRIA; Rate 0.500 kg/ha) was 9.0. It also gave an MOOVA herbicidal rating ([…], PRESL.; Rate 0.125 kg/ha) of 9.0, an MOOVA herbicidal rating ([…], PRESL.; Rate 0.250 kg/ha) of 9.0 and an MOOVA herbicidal rating ([…], PRESL.; Rate 0.500 kg/ha) of 9.0. The “ORYSAT herbicidal rating (rice tolerance)” value (“ORYSAT herbicidal rating” for short) ([6]; Rate 0.125 kg/ha) was 1.0, the “ORYSAT herbicidal rating” value ([6]; Rate 0.250 kg/ha) was 2.0 and the “ORYSAT herbicidal rating” value ([6]; Rate 0.500 kg/ha) was 3.0.
For `COC(=O)Cn1c(=O)n(C)c(=O)n(-c2cc(Oc3ccc([N+](=O)[O-])cc3F)ccc2[N+](=O)[O-])c1=O` [Compound 24, Methyl 3-[5-(2-fluoro-4-nitrophenoxy)-2-nitrophenyl]tetrahydro-5-methyl-2,4,6-trioxo-s-triazine-1(2H)-acetate], the “GALAP, herbicide rating (0-9)” value (GALIUM APARINE [7]; Rate 0.125 kg/ha) was 2.0, the “GALAP, herbicide rating (0-9)” value (GALIUM APARINE [7]; Rate 0.250 kg/ha) was 2.0 and the “GALAP, herbicide rating (0-9)” value (GALIUM APARINE [7]; Rate 0.500 kg/ha) was 2.0. The “ECHCG, herbicide rating (0-9)” value ([8]; Rate 0.125 kg/ha) was 0.0, the “ECHCG, herbicide rating (0-9)” value ([8]; Rate 0.250 kg/ha) was 0.0 and the “ECHCG, herbicide rating (0-9)” value ([8]; Rate 0.500 kg/ha) was 0.0. The “SETVI, herbicide rating (0-9)” value ([9]; Rate 0.125 kg/ha) was 0.0, the “SETVI, herbicide rating (0-9)” value ([9]; Rate 0.250 kg/ha) was 0.0 and the “SETVI, herbicide rating (0-9)” value ([9]; Rate 0.500 kg/ha) was 0.0. The CASOB herbicidal rating (CASSIA OBTUSIFOLIA, L.) was 0.0, the GALAP herbicidal rating (GALIUM APARINE [10]) was 0.0 and the “Herbicidal effect rating, ECHORC” value [5, 12] was 0.0. The “Herbicidal effect rating, CYPIR” value (CYPERUS IRIA; [12]) was 0.0, the “Herbicidal effect rating, CYPSE” value ([11]; 0.500 kg/ha) was 0.0 and the “Herbicidal effect rating, MOOVA” value ([…], PRESL.; [12]) was 0.0. For the same compound, the “Herbicidal effect rating, SAGPY” value (SAGITTARIA PYGMAEA, L.; 0.500 kg/ha) was 0.0 and the “Herbicidal effect rating, ORYSAT” value ([6]; 0.500 kg/ha) was 0.0.
For `COC(=O)Cn1c(=O)n(C)c(=O)n(-c2cc(Oc3cccc(Cl)c3Cl)ccc2[N+](=O)[O-])c1=O` [Compound 22, Methyl 3-[5-(2,3-dichlorophenoxy)-2-nitrophenyl]tetrahydro-5-methyl-2,4,6-trioxo-s-triazine-1(2H)-acetate], the CASOB herbicidal rating (CASSIA OBTUSIFOLIA, L.) was 3.0, the GALAP herbicidal rating (GALIUM APARINE [10]) was 0.0 and the “Herbicidal effect rating, CYPSE” value ([11]; 0.063 kg/ha) was 0.0. For the same compound, the “Herbicidal effect rating, CYPSE” value ([11]; 0.125 kg/ha) was 0.0, the “Herbicidal effect rating, CYPSE” value ([11]; 0.250 kg/ha) was 0.0 and the “Herbicidal effect rating, CYPSE” value ([11]; 0.500 kg/ha) was 0.0. The “Herbicidal effect rating, SAGPY” value (SAGITTARIA PYGMAEA, L.; 0.063 kg/ha) was 0.0, the “Herbicidal effect rating, SAGPY” value (SAGITTARIA PYGMAEA, L.; 0.125 kg/ha) was 0.0 and the “Herbicidal effect rating, SAGPY” value (SAGITTARIA PYGMAEA, L.; 0.250 kg/ha) was 0.0. For the same compound, the “Herbicidal effect rating, SAGPY” value (SAGITTARIA PYGMAEA, L.; 0.500 kg/ha) was 0.0, the “Herbicidal effect rating, ORYSAT” value ([6]; 0.063 kg/ha) was 0.0 and the “Herbicidal effect rating, ORYSAT” value ([6]; 0.125 kg/ha) was 0.0. For the same compound, the “Herbicidal effect rating, ORYSAT” value ([6]; 0.250 kg/ha) was 0.0 and the “Herbicidal effect rating, ORYSAT” value ([6]; 0.500 kg/ha) was 2.0.
